Assay results taken from PMC12006171, “Marsupial cathelicidins: characterization, antimicrobial activity and evolution in this unique mammalian lineage” (Frontiers in Immunology, 2025).
Values after ≈ are worked out from the molar mass of the structure shown. Where two headings read alike, the source gives them in different places. Where a SMILES comes first, the peptide text is derived from it.

Columns and labels:
Format in all cases: cell-based
[1] = system: Candida albicans Clinical isolate - human; test: microbe, parasite or virus in culture; settings: for MIC: Candida albicans, clinical isolate
Method: (§1) Antimicrobial testing of 78 cathelicidin MPs was performed in two phases as outlined in Figure 1 . In phase I, 40 peptides (27 extant and 13 ancestral) were selected for testing based on rank (outlined above) and similarity to published marsupial cathelicidins with known antimicrobial activity ([33], [41]–[43]). These peptides were tested against nine bacteria (Staphylococcus aureus ATCC 29213 and clinical isolate, Escherichia coli ATCC 25922 and clinical isolate, Pseudomonas aeruginosa ATCC 27853 and clinical isolate, Streptococcus agalactiae ATCC 12386 and clinical isolate, Streptococcus pneumoniae ATCC 49619) and three fungi (Candida krusei ATCC 6258, Candida parapsilosis ATCC 22019, and Candida albicans clinical isolate). Details regarding these strains are available in Supplementary Table 4 . The antimicrobial activity of cathelicidins was determined as the minimum inhibitory concentration (MIC), which was the lowest concentration of cathelicidin that prevented visible bacterial or fungal growth, relative to the negative control. […] Minimum bactericidal concentration (MBC) and/or minimum fungicidal concentration (MFC) was conducted to determine microbicidal versus static action. Activity against S. aureus ATCC, E. coli ATCC, and Pseudomonas aeruginosa ATCC 27853 was examined in the presence of divalent cations to determine the impact of inhibitors.
(§2) Antimicrobial activity was determined using a broth microdilution susceptibility assay in 96 well polypropylene plates according to Clinical Laboratory Standards Institute guidelines M07-A and M26A as described previously ([33], [42], [43]). The bacterial and fungal isolates from humans and animals used in this study are outlined in Supplementary Table 4 . Only yeasts were included in the panel of fungi as they have been used in the susceptibility testing of eutherian ([3], [81]–[83]) and other marsupial cathelicidins previously ([33], [42], [43]). Cathelicidin mature peptides were solubilized in DMSO and serially diluted in duplicate from 128-0.25μg/mL in a final volume of 100µL. For bacteria, cathelicidins were diluted in Mueller Hinton Broth (MHB) with or without 10% lysed horse blood, and with (MH II B) or without (MHB) calcium and magnesium cations. For fungi, cathelicidins were diluted in Roswell Park Memorial Institute medium (RPMI)-1640 MOPS. Ampicillin or tetracycline were included as a positive control for Gram-positive and -negative bacteria respectively, while amphotericin B was used for fungi. A media-only negative control and growth control (no cathelicidin) were also included on each plate. Bacteria were sub-cultured on Muller Hinton agar (MHA) or sheep blood agar (BA), and fungi on Sabouraud dextrose agar (SAB), 20–24 hours prior to the test. Colonies were suspended in saline, the concentration adjusted to a 0.5 McFarland standard, and then diluted in media to a concentration of 1.0 x 10^6 cells/mL. Then, 100μL was added to each well of the cathelicidin dilution plate, giving a final inoculum density of 5 x 10^5 CFU/mL and cathelicidin concentration of 64-0.125μg/mL. Colony counts were performed on MHA/BA/SAB to confirm inoculum density. All plates were incubated at 35°C for 20–24 hours, depending on the strain.
(§3) Colonies were counted and compared to the colony count of the starting inoculum.

[2] = system: Candida krusei ATCC 6258; test: microbe, parasite or virus in culture
Method: as §1, §2, §3

[3] = system: Candida parapsilosis ATCC 22019; test: microbe, parasite or virus in culture; settings: for MIC: Lodderomyces parapsilosis, ATCC22019
Method: as §1, §2, §3

[4] = system: Staphylococcus aureus clinical isolate – animal, penicillin-resistant (PRSA); settings: clinical isolate – animal, penicillin-resistant (PRSA)
Method: as §1, §2, §3

[5] = system: Staphylococcus aureus clinical isolate – animal, methicillin-resistant (MRSA); settings: clinical isolate – animal, methicillin-resistant
Method: as §1, §2, §3

[6] = system: Streptococcus pneumoniae ATCC 49619; test: microbe, parasite or virus in culture; settings: ATCC 49619; read-out: MIC S. pneumoniae ATCC
Method: as §1, §2, §3

[7] = system: Streptococcus agalactiae Clinical isolate - animal; test: microbe, parasite or virus in culture; settings: clinical isolate - animal; read-out: MIC S. agalactiae
Method: as §1, §2, §3

[8] = system: Streptococcus agalactiae ATCC 12386; test: microbe, parasite or virus in culture; settings: ATCC 12386; read-out: MIC S. agalactiae ATCC
Method: as §1, §2, §3

[9] = system: Pseudomonas aeruginosa clinical isolate - animal; test: microbe, parasite or virus in culture; settings: clinical isolate - animal
Method in brief: (§4)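 MIC read visually as the lowest peptide concentration with no growth versus negative control, after 20–24 h at 35°C. Peptides were tested in duplicate 64-0.125μg/mL (final) in MHB or cation-supplemented MH II B, some with 10% lysed horse blood; inoculum 5 x 10^5 CFU/mL.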

[10] = system: Escherichia coli clinical isolate - animal; test: microbe, parasite or virus in culture; settings: clinical isolate - animal
Method in brief: as §4

[11] = system: Pseudomonas aeruginosa ATCC 27853; test: microbe, parasite or virus in culture; settings: ATCC 27853
Method in brief: as §4

[12] = system: Staphylococcus aureus clinical isolate - animal; test: microbe, parasite or virus in culture; settings: clinical isolate - animal
Method in brief: as §4

[13] = system: Escherichia coli ATCC 25922; test: microbe, parasite or virus in culture; settings: ATCC 25922
Method in brief: as §4

[14] = system: Staphylococcus aureus ATCC 29213; test: microbe, parasite or virus in culture; settings: ATCC 29213
Method in brief: as §4

[15] = system: six bacteria (S. aureus, E. coli, P. aeruginosa; ATCC and clinical isolate)
Method: as §1
In phase II, the remaining 38 peptides (37 extant and one ancestral) were tested against six bacteria (S. aureus ATCC and clinical isolate, E. coli ATCC and clinical isolate, and P. aeruginosa ATCC and clinical isolate). […] No further testing on phase II peptides was performed. Detailed methods for all assays are provided in subsequent sections.
as §2, §3

[16] = RPMI-1640 MOPS, 5 x 10^5 CFU/mL, 35°C 20–24 hours, duplicate
[17] = ATCC 6258, read-out: MIC C. krusei ATCC
[18] = read-out: MIC P. aeruginosa ATCC
[19] = read-out: MIC in the presence of cations E. coli ATCC

Structure (SMILES) | MBC PRSA [4] [µM] | MIC PRSA [4] [µM] | MBC MRSA [5] [µM] | MIC MRSA [5] [µM] | MIC [6] [µM] | MIC [7] [µM] | MIC [8] [µM] | MIC [2, 17] [µM] | MBC P. aeruginosa [9] [µM] | MIC ([9]; read-out: MIC P. aeruginosa) [µM] | MBC E. coli [10] [µM] | MIC [10] [µM] | MIC in the presence of cations E. coli [10] [µM] | MIC [11, 18] [µM] | MBC S. aureus [12] | MIC S. aureus [12] | MIC in the presence of cations S. aureus [12] | MBC E. coli ATCC [13] | MIC ([13]; read-out: MIC E. coli ATCC) [µM] | MIC [13, 19] [µM] | further results
C[C@@H]1[C@H](O)[C@@H](C)/C=C/C=C/C=C/C=C/C=C/C=C/C=C/[C@H](O[C@@H]2O[C@H](C)[C@@H](O)[C@H](N)[C@@H]2O)C[C@@H]2O[C@](O)(C[C@@H](O)C[C@@H](O)[C@H](O)CC[C@@H](O)C[C@@H](O)CC(=O)O[C@H]1C)C[C@H](O)[C@H]2C(=O)O [Amphotericin B, reference compound] | – | – | – | – | – | – | – | – | – | – | – | – | – | – | – | – | – | – | – | – | MIC [1, 16]: 0.5 µg/mL; MIC ([1]; µM version of Table 4, read-out: MIC C. albicans): 0.5 µM; MIC ([2]; Pichia kudriavzevii, ATCC6258, RPMI-1640 MOPS, 5 x 10^5 CFU/mL, 35°C 20–24 hours, duplicate): 1 µg/mL; MIC ([2]; Pichia kudriavzevii, ATCC6258, µM version of Table 4, read-out: MIC C. krusei ATCC): 1 µM; MIC [3, 16]: 0.5 µg/mL; MIC ([3]; µM version of Table 4, read-out: MIC C. parapsilosis ATCC): 0.5 µM
CC[C@H](C)[C@H](NC(=O)[C@H](CCCNC(=N)N)NC(=O)[C@@H](N)CCCCN)C(=O)NCC(=O)N[C@@H](CC(C)C)C(=O)NCC(=O)NCC(=O)N[C@@H](CC(C)C)C(=O)N[C@H](C(=O)N[C@@H](CCCNC(=N)N)C(=O)N[C@@H](CCCNC(=N)N)C(=O)N[C@H](C(=O)N[C@@H](Cc1c[nH]c2ccccc12)C(=O)N[C@@H](CC(N)=O)C(=O)N[C@@H](CCCNC(=N)N)C(=O)N[C@H](C(=O)N[C@@H](CCCNC(=N)N)C(=O)N[C@@H](CCCNC(=N)N)C(=O)N[C@@H](CCCNC(=N)N)C(=O)NCC(=O)O)[C@@H](C)CC)[C@@H](C)CC)C(C)C [SmcrCath3] (H-KRIGLGGLVRRIWNRIRRRG-OH) | 6.5 (≈ 15.8 µg/mL) | 3.2 (≈ 7.79 µg/mL) | 6.5 (≈ 15.8 µg/mL) | 6.5 (≈ 15.8 µg/mL) | >26.3 | >26.3 | >26.3 | 6.5 | > 26.3 | 26.3 (≈ 64 µg/mL) | 6.5 (≈ 15.8 µg/mL) | 3.2 (≈ 7.79 µg/mL) | 6.5 | >26.3 | 6.5 (6.5)^6.5 µM | 6.5 (6.5)^6.5 µM | 6.5 (6.5)^6.5 µM | 6.5 µM (≈ 15.8 µg/mL) | 6.5 (≈ 15.8 µg/mL) | 13.1 | MFC C. albicans ([1]; Clinical isolate - human): 26.3 µM (≈ 64 µg/mL); MBC S. aureus ATCC [14]: 6.5 (6.5)^6.5 µM; MIC S. aureus ATCC [14]: 6.5 (6.5)^6.5 µM; MIC in the presence of cations S. aureus ATCC [14]: 6.5 (6.5)^6.5 µM
CC[C@H](C)[C@H](NC(=O)[C@H](CCCNC(=N)N)NC(=O)[C@@H](N)CCCCN)C(=O)NCC(=O)N[C@@H](CC(C)C)C(=O)NCC(=O)NCC(=O)N[C@@H](CC(C)C)C(=O)N[C@H](C(=O)N[C@@H](CCCNC(=N)N)C(=O)N[C@@H](CCCNC(=N)N)C(=O)N[C@H](C(=O)N[C@@H](CC(C)C)C(=O)N[C@@H](CC(=O)O)C(=O)N[C@@H](CCCNC(=N)N)C(=O)N[C@H](C(=O)N[C@@H](CCCNC(=N)N)C(=O)N[C@@H](CCCNC(=N)N)C(=O)N[C@@H](CCCNC(=N)N)C(=O)NCC(=O)O)[C@@H](C)CC)[C@@H](C)CC)C(C)C [AnstCath4] (H-KRIGLGGLVRRILDRIRRRG-OH) | 6.7 (≈ 15.8 µg/mL) | 6.7 (≈ 15.8 µg/mL) | 27.1 (≈ 64 µg/mL) | 13.5 (≈ 31.9 µg/mL) | >27.1 | >27.1 | >27.1 | 8.9 | – | >27.1 | 27.1 (≈ 64 µg/mL) | 13.5 (≈ 31.9 µg/mL) | 27.1 | >27.1 | 13.5 (13.5)^13.5 µM | 13.5 (13.5)^13.5 µM | 13.5 (13.5)^13.5 µM | 27.1 (27.1)^27.1 µM | – | – | MFC C. parapsilosis ATCC ([3]; ATCC 22019): 64 (>64) µg/mL; MIC E. coli ATCC [13]: 27.1 (27.1)^27.1 µM; MBC S. aureus ATCC [14]: 13.5 (13.5)^13.5 µM; MIC S. aureus ATCC [14]: 13.5 (13.5)^13.5 µM; MIC in the presence of cations S. aureus ATCC [14]: 13.5 (13.5)^13.5 µM
CC[C@H](C)[C@H](NC(=O)[C@H](CCC(N)=O)NC(=O)[C@H](Cc1ccccc1)NC(=O)[C@H](CC(N)=O)NC(=O)[C@H](CCCCN)NC(=O)[C@H](CC(C)C)NC(=O)[C@H](CCCNC(=N)N)NC(=O)[C@H](CCCCN)NC(=O)[C@H](CCCCN)NC(=O)[C@@H](NC(=O)[C@H](CO)NC(=O)[C@H](CCCCN)NC(=O)CNC(=O)[C@H](CC(C)C)NC(=O)[C@H](CCCCN)NC(=O)[C@H](CCCCN)NC(=O)[C@H](CC(C)C)NC(=O)[C@H](CCCCN)NC(=O)[C@H](CCCCN)NC(=O)[C@H](CCCNC(=N)N)NC(=O)[C@H](CC(C)C)NC(=O)CNC(=O)[C@@H](N)CCCNC(=N)N)[C@@H](C)CC)C(=O)NCC(=O)N[C@@H](Cc1ccccc1)C(=O)N[C@@H](CO)C(=O)N[C@H](C(=O)N1CCC[C@H]1C(=O)N[C@@H](Cc1ccccc1)C(=O)N[C@@H](C)C(=O)NCC(=O)O)C(C)C [PegaCath4] (H-RGLRKKLKKLGKSIKKRLKNFQIGFSVPFAG-OH) | > 18 | 4.5 (≈ 15.9 µg/mL) | > 18 | 18 (≈ 63.8 µg/mL) | >18 | >18 | >18 | – | 4.5 (≈ 15.9 µg/mL) | 2.2 (≈ 7.8 µg/mL) | 1.1 (≈ 3.9 µg/mL) | 1.1 (≈ 3.9 µg/mL) | – | 2.2 (≈ 7.8 µg/mL) | – | 18 (>18)^18 µM | 18 (>18)^18 µM | 2.2 µM (≈ 7.8 µg/mL) | 1.1 (≈ 3.9 µg/mL) | 1.1 | MIC against at least one strain [15]: 4 µg/mL (≈ 1.13 µM); MIC ([9]; read-out: MIC in the presence of cations P. aeruginosa): 2.2 µM; MBC P. aeruginosa ATCC [11]: 4.5 µM (≈ 15.9 µg/mL); MIC ([11]; read-out: MIC in the presence of cations P. aeruginosa ATCC): 2.2 µM; MIC ([14]; read-out: MIC S. aureus ATCC): 9 µM (≈ 31.9 µg/mL); MIC ([14]; read-out: MIC in the presence of cations S. aureus ATCC): 18 µM
